In patent publication EP0671905B1, “STABLE PROTEIN: PHOSPHOLIPID COMPOSITIONS AND METHODS” (Amgen Inc., priority 1993, dated 1995):

Legend:
[1] = Tryptophan fluorescence emission spectra of protein:lipid complexes; format: physicochemical; details: mole ratio lipid:rhG-CSF 100:1
Description: There are two tryptophan residues in rhG-CSF that are quite sensitive to local environmental conditions. Therefore, analysis was performed to determine the rhG-CSF tryptophan fluorescence when the rhG-CSF is contacted with a liposome. […] An excellent review of tryptophan fluorescence analysis is […], by J. Lakowicz, Chap 11 (Plenum Press, New York, 1983).
Tryptophan fluorescence of the G-CSF:lipid complexes (as described above) was assayed by exciting the samples at 280 nm and while scanning the emission from 285 nm to 420 nm in 1nm increments at a rate of 1 nm/sec. The sample volume was 3 ml and the final concentration of G-CSF was 0.2 mg/ml for all samples. The lipid:G-CSF ratios varied. All fluorescence measurements were carried out using a PTI Alphascan fluorometer (South Brunswick, NJ). All measurements were performed at 25°C and this temperature was maintained through the use of a water-jacketed cuvette holder connected to a circulating water bath. Emission spectra were collected and analyzed using the data software provided by PTI.
In this example, the ability of rhG-CSF to interact with other phospholipids was determined using comparisons of F/FO intensity and emission maximums as described above. In each instance, the mole ratio of lipid:rhG-CSF was 100:1.
In this example, chemically modified G-CSF (pegylated G-CSF (PEG-G-CSF)) and G-CSF obtained as a product of eucaryotic host cell expression (CHO-G-CSF) were tested for their ability to interact with negatively charged lipid vesicles. For the CHO-G-CSF, the determinations were made using comparisons of F/FO intensity and emission maximums (as described in Example 1 above). In each instance, the mole ratio of lipid:protein was 100:1. For the PEG-G-CSF, the determination was based upon circular dichroism analysis.

[2] = Circular dichroism at 222 nm, thermal stability and temperature cycling; format: physicochemical; details: for effect on secondary structure of rhG-CSF (circular dichroism): 150:1 lipid:rhG-CSF ratio, heated to 95°C and cooled to 10°C; for thermal stability of GM-CSF (circular dichroism): lipid:GM-CSF ratio 17:1, PBS pH 7.0, heated to 90°C and cooled to 10°C
[3] = test system: murine bone marrow cells; experiment: In vitro activity: G-CSF dependent uptake of [3H]-thymidine by bone marrow cells; format: cell-based; details: lipid mixed with rhG-CSF, lipid:protein ratio 100:1; control untreated rhG-CSF without lipid
Description: In this example, the effect of the rhG-CSF:DOPG interaction as it relates to the biological activity of rhG-CSF was determined. The in vitro activity of rhG-CSF was assayed utilizing the G-CSF dependent uptake of [^3H]-thymidine by murine bone marrow cells as described in Zsebo et al., Immunobiology 172: 175-184 (1986). All activity assays were performed in triplicate. In vivo activity was determined by subcutaneous injection of hamsters (rhG-CSF dose of 100 µg/kg) and measurements of white blood cell (WBC) count.
After heating to 85°C for 10 minutes, rhG-CSF has undetectable activity and the protein precipitates. […] B. The ability of various lipids to stabilize rhG-CSF during freeze drying was also studied. Samples of rhG-CSF in combination with various lipids were freeze dried and assayed (as described above) for activity.

insertion of rhG-CSF into lipid vesicles (F/FO and emission maximum) [1] | Compound | effect on emission maximum and fluorescence intensity of rhG-CSF [1] | effect on secondary structure of rhG-CSF (circular dichroism) [2] | thermal stability of GM-CSF (circular dichroism) [2] | retention of rhG-CSF bioactivity after freeze drying [3] [%]
 | CCCCCCCCCCCCCC(=O)OC[C@H](COP(=O)([O-])OCC[N+](C)(C)C)OC(=O)CCCCCCCCCCCCC [DMPC, reference compound] | little if no effect |  |  | 
can insert | CCCCCCCCCCCCCC(=O)OCC(COP(=O)(O)OCC(O)CO)OC(=O)CCCCCCCCCCCCC (centres unmarked) [DMPG, dimyristoylphosphatidylglycerol] |  | stabilize the secondary structure of rhG-CSF | recovery of secondary structure after heating | ~100
 | CCCCCCCC/C=C\CCCCCCCC(=O)OC[C@H](COP(=O)([O-])OCC[N+](C)(C)C)OC(=O)CCCCCCC/C=C\CCCCCCCC [DOPC, reference compound] | little if no effect |  |  | 
can insert | CCCCCCCC/C=C\CCCCCCCC(=O)OC[C@H](COP(=O)(O)OCC(O)CO)OC(=O)CCCCCCC/C=C\CCCCCCCC (some centres unmarked) [DOPG, dioleoylphosphatidylglycerol] |  |  |  | ~100
 | CCCCCCCCCCCCCCCC(=O)OC[C@H](COP(=O)([O-])OCC[N+](C)(C)C)OC(=O)CCCCCCCCCCCCCCC [DPPC, reference compound] | little if no effect |  |  | 
can insert | CCCCCCCCCCCCCCCC(=O)OCC(COP(=O)(O)OCC(O)CO)OC(=O)CCCCCCCCCCCCCCC (centres unmarked) [DPPG, dipalmitoylphosphatidylglycerol] |  | stabilize the secondary structure of rhG-CSF | recovery of secondary structure after heating | ~100

Compound | insertion of rhG-CSF into lipid vesicles (F/FO and emission maximum) [1] | effect on emission maximum and fluorescence intensity of rhG-CSF [1] | effect on secondary structure of rhG-CSF (circular dichroism) [2] | thermal stability of GM-CSF (circular dichroism) [2] | retention of rhG-CSF bioactivity after freeze drying [3] [%]
CCCCCCCCC=CCCCCCCCC(=O)OCC(COP(=O)(O)OCCNC(=O)CCCC(=O)O)OC(=O)CCCCCCCC=CCCCCCCCC (centres unmarked) [NG-DOPE] | improved insertion of the rhG-CSF than DOPE |  |  |  | 
